The values below come from PubChem BioAssay (NCI).

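Protocol summary: plate cells (96-well), add compound at 5 concentrations, incubate 48 h, interpolate endpoints linearly. GI50 = concentration required for 50% inhibition of growth. TGI: concentration producing complete growth inhibition.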

In the assay the test system is MDA-MB-468 breast. The assay can be described thus: DTP human tumour cell line panel, 48 h.
With `CSc1nc2ccc(C)cc2cc1/C=C1/C=C(c2ccccc2)NC1=O`, the GI50 is 5770 nM and the TGI worked out at 61300 nM.

Consider `C=Cc1cc(OC)c2c(c1)c(=O)oc1c2cc(OC)c2c(O)ccc(C3OC(C(C)O)C(O)C3O)c21` (configuration not stated), for which the GI50 is 4.91 nM and the total growth inhibition concentration (TGI) is greater than 1000 nM.

On to `Cn1cc(-c2csc(-c3cn(C(=O)OC(C)(C)C)c4ccccc34)n2)c2cccnc21`, for which the GI50 is 865 nM and the TGI was determined as 12300 nM.

With `CC1=C(SCCC(=O)OC(C[Se]C2=C(C)C(=O)c3ccccc3C2=O)C(=O)NC(C)(C)C)C(=O)c2ccccc2C1=O` (configuration not stated), the GI50 was 226 nM and the total growth inhibition concentration (TGI) came out at 657 nM.

Take `c1ccc(-c2cc3n4c(-c5ccccc5)nn(-c5ccccc5)c4cnc-3n2)cc1`: the GI50 is 4380 nM and the concentration for total growth inhibition (TGI) is greater than 50000 nM.

As to `C[C@@H](C[C@H](CCO)c1ccccc1)c1ccc2ccccc2c1`, the GI50 is 1530 nM and the TGI was determined as 2980 nM.

`CN(C)CCOc1ccc2c(c1)C(=O)/C(=C\c1ncc([N+](=O)[O-])n1C)C2`: the GI50 is 188 nM and the TGI turned out to be 516 nM.

`CNc1nc(-c2ccc3c(N)n[nH]c3c2)cc(N2C[C@@H](C(=O)NC3CCCCC3)CC[C@H]2C)n1`: the 50% growth inhibitory concentration (GI50) is 270 nM and the concentration for total growth inhibition (TGI) came out at 2440 nM.

For the molecule `CC[C@@H](C(=O)[C@@H](C)[C@@H](O)[C@H](C)[C@@H]1O[C@@H]([C@@H](CC)C(=O)O)CC[C@@H]1C)[C@H]1O[C@]2(C=C[C@@H](O)[C@]3(CC[C@@](C)([C@H]4CC[C@](O)(CC)[C@H](C)O4)O3)O2)[C@H](C)C[C@@H]1C`, the 50% growth inhibitory concentration (GI50) is 197 nM and the TGI came out at 2440 nM.

Regarding `NC1=C(O)C(=O)C(c2c[nH]c3ccc(OCc4ccccc4)cc23)O1` (configuration not stated), the GI50 is greater than 100000 nM and the TGI was greater than 100000 nM.

`c1ccc2c(NCCCN3CCOCC3)c3oc4ccccc4c3nc2c1`: the GI50 was 1360 nM and the TGI stood at 3400 nM.

As for `CCOC(=O)N(O)c1ccc(/C=C/c2ccccc2)cc1`, the GI50 was 25 nM and the TGI was determined as 90.8 nM.

As to `COc1cc2c(=O)n(CC3CCCCC3)c3c4cc[nH]c4ncc3c2cc1OC`, the GI50 is 4610 nM and the TGI came out at 25600 nM.

Regarding `COC(=O)c1cc(C)[nH]c2c(C)cc3nc4ccccc4c3c12`, the GI50 was 3760 nM and the concentration for total growth inhibition (TGI) was found to be 12300 nM.

In the case of `Cc1c2ccccc2c(C)n2c1nc1cc(Cl)c(Cl)cc12`, the GI50 is 27600 nM and the TGI is greater than 100000 nM.

Consider `C[C@@H]1Cc2c(ccc3[nH]ncc23)[C@@H](c2ccc(NC3CN(CCCF)C3)cn2)N1CC(F)(F)F`, for which the GI50 is 13400 nM and the TGI was determined as 27800 nM.

As to `O=C(N/N=C/c1ccc(N(CCCl)CCCl)cc1)c1ccc(C(=O)N/N=C/c2ccc(N(CCCl)CCCl)cc2)cc1`, the GI50 was 1600 nM and the total growth inhibition concentration (TGI) came to 80600 nM.

With `Cc1nc2sc(C(=O)Nc3ccccc3)c(N)c2cc1C(=O)c1ccccc1`, the GI50 was 2590 nM and the concentration for total growth inhibition (TGI) is 28900 nM.

For `O=S(=O)(Nc1ccc(Cl)c(Cl)c1)c1ccc(-c2cnc(C3CC3)o2)cc1`, the GI50 is 222 nM and the total growth inhibition concentration (TGI) was 736 nM.

In the case of `CS(=O)(=O)CCNCc1ccoc1-c1ccc2ncnc(Nc3ccc(OCc4ccccc4)cc3)c2c1`, the GI50 was 506 nM and the TGI worked out at 4490 nM.

On to `CCCCCCCCc1cc(O)ccc1O`, for which the GI50 was 11300 nM and the TGI amounted to 28600 nM.

Take `COc1ccc(C2C3=C(COC3=O)N(CCO)c3cc4c(cc32)CCC4)cc1` (configuration not stated): the GI50 was 1360 nM and the total growth inhibition concentration (TGI) amounted to 5330 nM.

Take `N=C1C=C(N)C(=O)c2ccccc21`: the GI50 is 112 nM and the TGI worked out at 248 nM.

`COc1ccc(F)cc1-c1ccnc2[nH]c(C3=CCN(C4CCC(CC(=O)O)CC4)CC3)cc12` (configuration not stated): the GI50 was 77.9 nM and the concentration for total growth inhibition (TGI) was 444 nM.

With `CC(C)(C)CC(C)(C)NCC(O)COc1ccc(C(C)(C)c2ccc(OCC(O)CNC(C)(C)CC(C)(C)C)cc2)cc1` (configuration not stated), the GI50 is 1310 nM and the TGI turned out to be 2770 nM.

For the molecule `CNC(=O)c1cc(-c2ccc(F)cc2)cc(-c2ccc(S(=O)(=O)N3CCCC3)cc2)c1N`, the GI50 is 5480 nM and the TGI is greater than 25000 nM.

Consider `COc1ccc(S(=O)(=O)Nc2cc(Sc3cccc4cccnc34)c(O)c3ccccc23)cc1`, for which the GI50 is 1150 nM and the concentration for total growth inhibition (TGI) turned out to be 3120 nM.

With `N=C(N)c1ccc(-c2ccc(-c3ccc(Cl)cc3Cl)s2)nc1`, the GI50 was 1720 nM and the concentration for total growth inhibition (TGI) was found to be 3410 nM.

In the case of `COC(=O)[C@@H](C)C[C@H](Cc1ccccc1)NC(=O)c1csc([C@@H](C[C@H](C(C)C)N(C)C(=O)[C@@H](NC(=O)[C@H]2CCCCN2C)C(C(F)(F)F)C(F)(F)F)OC(C)=O)n1`, the 50% growth inhibitory concentration (GI50) was 21.3 nM and the TGI is greater than 16700 nM.

As for `COC(=O)Nc1nc2ccc(C(=O)c3cccs3)cc2[nH]1`, the concentration for 50% growth inhibition (GI50) was 161 nM and the TGI was greater than 100000 nM.

Consider `CC(C)(C)c1ccc(CC(=O)Nc2sc3c(c2C(N)=O)CCC(=O)C3)cc1`, for which the GI50 is 1380 nM and the TGI was 3720 nM.

Usually GI50 stands for the concentration at which growth is held to half of that of the control. In general, TGI refers to the concentration giving total growth inhibition. Low values mean greater sensitivity of the cells, high ones lower sensitivity of the cells.
